The values below come from ChEMBL document CHEMBL1131979, “Synthesis and SAR studies of 1-substituted-n-(4-alkoxycarbonylpiperidin-1-yl)alkanes as potent antiarrhythmic agents” (Bioorg Med Chem Lett, 1999).

As a reminder, the Inhibition is the drop in the measured response relative to a control, in per cent. The low end stands for a weak effect, the high end for a strong effect.

Calls of active or inactive are those of the source. The rule behind the calls is not given here.

Data set [1] is described as follows: Lipophilicity was determined. The format is physicochemical. The settings on record: octanol/water.
The species named for data set [2] is Cavia porcellus. As to the kind of experiment: Antiarrhythmic effect expressed as percent reduction of the maximal rate of stimulation for antiarrhythmic activity in guinea pig auricle at 8 uM. In kind it is functional, Heart.
For data set [3], the species on record is Cavia porcellus. As to the kind of experiment: Antiarrhythmic effect expressed as percent reduction of the maximal rate of stimulation for antiarrhythmic activity in guinea pig auricle at 8 uM; NS means not significant. The format is functional. The settings on record: Heart.
Data set [4] deals with Cavia porcellus. As to the kind of experiment: Appearance of ectopic beat (EA) in guinea pig tested for in vivo antiarrhythmic activity against ouabain induced cardiac arrhythmias at a dose of 10 mg/kg by iv administration. The format is functional, Heart.
Data set [5] has as its system Cavia porcellus. As to the kind of experiment: Appearance of ectopic beat (EA) in guinea pig tested for in vivo antiarrhythmic activity against ouabain induced cardiac arrhythmias at a dose of 20 mg/kg by po administration. In kind it is functional, Heart.
The test system of data set [6] is Cavia porcellus. As to the kind of experiment: Cardiac arrest(CA) in […] guinea pig tested for in vivo antiarrhythmic activity against ouabain induced cardiac arrhythmias at a dose of 20 mg/kg by po administration. The format is functional, Heart.
Data set [7] has as its system Cavia porcellus. As to the kind of experiment: Change in heart rate(HR) in guinea pig tested for in vivo antiarrhythmic activity against ouabain induced cardiac arrhythmias at a dose of 20 mg/kg by po administration; value ranges from 18-27%. The format is functional.
Data set [8] has as its system Cavia porcellus. As to the kind of experiment: Cardiac arrest(CA) in guinea pig tested for in vivo antiarrhythmic activity against ouabain induced cardiac arrhythmias at a dose of 10 mg/kg by iv administration. The format is functional, Heart.
Data set [9] has as its system Cavia porcellus. As to the kind of experiment: Ventricular fibrillation (VF) in guinea pig tested for in vivo antiarrhythmic activity against ouabain induced cardiac arrhythmias at a dose of 10 mg/kg by iv administration. The format is functional, Heart.
Data set [10] deals with Cavia porcellus. As to the kind of experiment: Ventricular fibrillation (VF) in guinea pig tested for in vivo antiarrhythmic activity against ouabain induced cardiac arrhythmias at a dose of 20 mg/kg by po administration. In kind it is functional, Heart.
For data set [11], the system named is Cavia porcellus. As to the kind of experiment: Change in heart rate(HR) in guinea pig tested for in vivo antiarrhythmic activity against ouabain induced cardiac arrhythmias at a dose of 10 mg/kg by iv administration; value ranges from 17-18%. The format is functional.
For data set [12], the system named is Rattus norvegicus. As to the kind of experiment: Ventricular fibrillation (VF) in rats tested for in vivo Antiarrhythmic activity against aconitine induced arrhythmias at a dose of 10 mg/kg by iv administration. In kind it is functional, Heart.
For data set [13], the system named is Rattus norvegicus. As to the kind of experiment: Ventricular tachycardia (VT) in rats tested for in vivo Antiarrhythmic activity against aconitine induced arrhythmias at a dose of 10 mg/kg by iv administration. In kind it is functional, Heart.
Data set [14] relates to Rattus norvegicus. As to the kind of experiment: Ventricular tachycardia (VT) in rats tested for in vivo Antiarrhythmic activity against aconitine induced arrhythmias at a dose of 25 mg/kg by po administration. The format is functional, Heart.
The test system of data set [15] is Rattus norvegicus. As to the kind of experiment: Change in heart rate(HR) in rats tested for in vivo antiarrhythmic activity against aconitine induced arrhythmias at a dose of 10 mg/kg by iv administration; value ranges from 18-30%. In kind it is functional.
The subject of data set [16] is Rattus norvegicus. As to the kind of experiment: Change in heart rate(HR) in rats tested for in vivo antiarrhythmic activity against aconitine induced arrhythmias at a dose of 25 mg/kg by po administration; value ranges from 11-17%. The format is functional.
Data set [17] deals with Rattus norvegicus. As to the kind of experiment: Appearance of ectopic beat (EA) in rats tested for in vivo Antiarrhythmic activity against aconitine induced arrhythmias at a dose of 10 mg/kg by iv administration. In kind it is functional, Heart.
For data set [18], the system named is Rattus norvegicus. As to the kind of experiment: Appearance of ectopic beat (EA) in rats tested for in vivo Antiarrhythmic activity against aconitine induced arrhythmias at a dose of 25 mg/kg by po administration. In kind it is functional, Heart.
Data set [19] concerns Rattus norvegicus. As to the kind of experiment: Cardiac arrest(CA) in rats tested for in vivo Antiarrhythmic activity against aconitine induced arrhythmias at a dose of 10 mg/kg by iv administration. The format is functional, Heart.
Data set [20] has as its system Rattus norvegicus. As to the kind of experiment: Cardiac arrest(CA) in rats tested for in vivo Antiarrhythmic activity against aconitine induced arrhythmias at a dose of 25 mg/kg by po administration. In kind it is functional, Heart.
Data set [21] relates to Rattus norvegicus. As to the kind of experiment: Ventricular fibrillation (VF) in rats tested for in vivo Antiarrhythmic activity against aconitine induced arrhythmias at a dose of 25 mg/kg by po administration. In kind it is functional, Heart.
The subject of data set [22] is Cavia porcellus. As to the kind of experiment: Change in heart rate(HR) in guinea pig tested for in vivo antiarrhythmic activity against ouabain induced cardiac arrhythmias at a dose of 10 mg/kg by iv administration; value ranges from 17-30%. In kind it is functional.
The test system of data set [23] is Cavia porcellus. As to the kind of experiment: Change in heart rate(HR) in guinea pig tested for in vivo antiarrhythmic activity against ouabain induced cardiac arrhythmias at a dose of 20 mg/kg by po administration; value ranges from 10-35%. In kind it is functional.
For data set [24], the system named is Rattus norvegicus. As to the kind of experiment: Change in heart rate(HR) in rats tested for in vivo antiarrhythmic activity against aconitine induced arrhythmia at a dose of 10 mg/kg by iv administration; value ranges from 16-34. The format is functional.
The subject of data set [25] is Rattus norvegicus. As to the kind of experiment: Change in heart rate(HR) in rats tested for in vivo antiarrhythmic activity against aconitine induced arrhythmias at a dose of 25 mg/kg by po administration; value ranges from 16-34. In kind it is functional.

On to `CCCOC(=O)C1CCN(CCCC(=O)c2ccc(F)cc2)CC1`, for which the “Log P/(100-P)” value in data set [1] is -0.954. For the same compound, the Inhibition in the data set filed under Cavia porcellus [2] stood at 10%.

On to `CCOC(=O)C1CCN(CCCC(=O)c2ccc(F)cc2)CC1`, for which the “Log P/(100-P)” value in data set [1] was -0.462. In the data set filed under Cavia porcellus [2], this compound yielded an Inhibition of 25.66%.

`COC(=O)C1CCN(CCCN2CCN(c3ccccc3)CC2)CC1`: the “Log P/(100-P)” value in data set [1] was -1.195. In the data set listed under Cavia porcellus [2], this compound registered an Inhibition of 6%.

As to `CC(C)OC(=O)C1CCN(CCCC(=O)c2ccc(F)cc2)CC1`, the “Log P/(100-P)” value in [1] is reported as -0.865. The Inhibition in the data set listed under Cavia porcellus [2] came out at 12%.

On to `COC(=O)C1CCN(CCCN2CCN(c3ccc(F)cc3)CC2)CC1`, for which the inhibition result in the data set filed under Cavia porcellus [3] is “inactive”.

For `COC(=O)C1CCN(CCCOc2cccc(NC(C)=O)c2)CC1`, the “Log P/(100-P)” value in data set [1] is on record as -1.123. This compound also registered an Inhibition in the data set filed under Cavia porcellus [2] of 7%.

As for `COC(=O)C1CCN(CCC(=O)N2CCN(c3ccc(F)cc3)CC2)CC1`, the “Log P/(100-P)” value in [1] is -0.954. Further, in the data set listed under Cavia porcellus [2], the Inhibition was determined as 10%.

`COC(=O)C1CCN(CCCN2CCN(c3ccccn3)CC2)CC1`: in the data set listed under Cavia porcellus [3], the inhibition entry is “inactive”.

For `C=C[C@H]1CN2CC[C@H]1C[C@@H]2[C@@H](O)c1ccnc2ccc(OC)cc12.C=C[C@H]1CN2CC[C@H]1C[C@@H]2[C@@H](O)c1ccnc2ccc(OC)cc12.O.O.O=S(=O)(O)O` [QUINIDINE SULFATE], the “Amount of Ouabain used” value with Cavia porcellus [4] stood at 128.33; in the data set with Cavia porcellus [5], 138.99; in the data set on Cavia porcellus [6], 225.31; in the data set on Cavia porcellus [8] it was 187.59; in the data set with Cavia porcellus [9], 167.78; in the data set on Cavia porcellus [10] it was 201.34. Moreover, the “Change in heart rate” value with Cavia porcellus [7] stood at 18%; in the data set on Cavia porcellus [11], 17%; in the data set with Rattus norvegicus [15] it was 18%; in the data set on Rattus norvegicus [16] it was 11%. In the data set filed under Cavia porcellus [2], this compound registered an Inhibition of 29.68%. Moreover, the “Amount of Acotine used” value in the data set with Rattus norvegicus [12] is listed as 370; in the data set on Rattus norvegicus [13], 252.72; in the data set on Rattus norvegicus [14], 237.02; with Rattus norvegicus [17], 156.24; with Rattus norvegicus [18] it was 173.66; with Rattus norvegicus [19], 523.64. For the same compound, the results for the “Amount of Acotine used” value in the data set with Rattus norvegicus [20] and in the data set with Rattus norvegicus [21] were 581.06 and 416.36, respectively.

As to `COC(=O)C1CCN(CCCC(=O)c2ccc(F)cc2)CC1`, in data set [1], the “Log P/(100-P)” value was -0.493. The “Amount of Ouabain used” value in the data set with Cavia porcellus [4] is given as 101.35; in the data set with Cavia porcellus [5], 124.56; in the data set with Cavia porcellus [6], 187.05; with Cavia porcellus [8], 175.76; in the data set with Cavia porcellus [9], 138.04; with Cavia porcellus [10] it was 153.65. Further, the “Change in heart rate” value was 17% in the data set with Cavia porcellus [22], 10% in the data set with Cavia porcellus [23], 16% in the data set on Rattus norvegicus [24] and 16% in the data set on Rattus norvegicus [25]. In the data set filed under Cavia porcellus [2], this compound yielded an Inhibition of 24.33%. The “Amount of Acotine used” value in the data set with Rattus norvegicus [12] came out at 373.36; in the data set on Rattus norvegicus [13] it was 231.27; in the data set on Rattus norvegicus [14], 226.74; in the data set with Rattus norvegicus [17], 132.79; in the data set with Rattus norvegicus [18], 159.29; with Rattus norvegicus [19], 544.28. Further, the “Amount of Acotine used” value in the data set on Rattus norvegicus [20] was found to be 457.72; with Rattus norvegicus [21], 356.09.
